Results taken from patent US12486265B2, “2-aminopyrimidine compounds and pharmaceutical compositions and uses thereof” (Shanghai Zhimeng Biopharma, Inc., priority 2019, dated 2025).
Read-outs that look alike come from different tables or passages of the source.

Columns and labels:
human TLR7 = target: T1, human TLR7 (Homo sapiens, UniProt Q9NYK1); assay: hTLR7 receptor binding activity in vitro (HEK-Blue hTLR7 SEAP reporter); assay type: cell-based; conditions: HEK-Blue hTLR7 cells, 24 hours, SEAP OD650
T1 construct: host or cells: HEK-Blue hTLR7 (HEK293-derived)
T1 sequence (Q9NYK1 27-1049): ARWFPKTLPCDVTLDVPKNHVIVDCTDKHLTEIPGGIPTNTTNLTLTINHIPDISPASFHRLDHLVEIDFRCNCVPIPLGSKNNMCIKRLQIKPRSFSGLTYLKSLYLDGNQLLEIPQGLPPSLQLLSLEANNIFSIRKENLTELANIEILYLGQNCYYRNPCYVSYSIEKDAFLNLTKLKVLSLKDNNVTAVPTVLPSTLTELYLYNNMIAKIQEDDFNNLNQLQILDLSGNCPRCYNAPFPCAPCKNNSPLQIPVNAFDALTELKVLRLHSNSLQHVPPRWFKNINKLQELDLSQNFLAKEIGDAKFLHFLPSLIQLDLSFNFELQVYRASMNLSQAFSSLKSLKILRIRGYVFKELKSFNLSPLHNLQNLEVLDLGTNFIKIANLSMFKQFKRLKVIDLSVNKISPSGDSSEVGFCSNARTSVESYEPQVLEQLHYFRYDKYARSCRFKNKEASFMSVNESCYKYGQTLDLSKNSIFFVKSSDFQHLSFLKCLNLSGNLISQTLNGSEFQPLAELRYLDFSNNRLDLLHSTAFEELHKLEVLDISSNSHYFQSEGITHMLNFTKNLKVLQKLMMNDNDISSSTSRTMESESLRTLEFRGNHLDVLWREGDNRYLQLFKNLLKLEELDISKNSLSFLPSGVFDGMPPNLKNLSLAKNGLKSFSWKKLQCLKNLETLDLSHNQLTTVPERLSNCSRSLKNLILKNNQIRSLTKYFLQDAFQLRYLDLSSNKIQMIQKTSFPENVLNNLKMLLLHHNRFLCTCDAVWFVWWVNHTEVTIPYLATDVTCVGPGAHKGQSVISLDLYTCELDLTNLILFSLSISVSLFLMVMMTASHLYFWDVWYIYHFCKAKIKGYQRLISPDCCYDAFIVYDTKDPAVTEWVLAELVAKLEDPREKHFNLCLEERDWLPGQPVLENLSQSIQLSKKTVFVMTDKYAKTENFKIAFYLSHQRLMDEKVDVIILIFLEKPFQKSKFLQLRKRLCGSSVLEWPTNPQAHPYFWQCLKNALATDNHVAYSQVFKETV
Method: (§1) The ability of the compounds of the present invention to activate TLR7 and TLR8 respectively was evaluated by using receptor binding experiments in vitro.
(§2) HEK-Blue™ hTLR7 (article number: hkb-htlr7) and HEK-Blue™ hTLR8 (article number: hkb-htlr8) cells were purchased from InvivoGen company. HEK-Blue™ hTLR7/8 cells can indicate the activation of TLR7/8 by detecting the activation level of NF-κB signaling pathway. HEK-Blue™ hTLR7/8 cells are derived from human embryonic kidney 293 cells, stably expressing human TLR7 or human TLR8, respectively, and can induce expression of secretory alkaline phosphatase (SEAP) to report gene system. The expression of SEAP reporter gene is regulated by IFN-β simplified promoter, which is composed of 5 NF-κB binding sequences and AP-1 binding sequences. Therefore, when TLR7/8 is activated in these two cells, NF-κB and AP-1 will be activated, and SEAP expression and extracellular secretion will be induced. By detecting the activity of SEAP outside the cell, the activation level of TLR7/8 can be indicated.
(§3) • (1) The compound was added to the cell culture plate after a 3-fold gradient dilution, with a total of 10 concentrations, with two duplicates wells for each concentration.
(§4) [drawing 45] per well; • (2) HEK-Blue™ hTLR7/8 cells were digested separately, counted, and the cells at 5.0×10^4 cells per well were added to a 96-well cell culture plate containing compounds; (3) The cells added with the compound were placed in a 5% CO2 incubator at 37° C. for 24 hours; • (4) Compound activity detection: took 20 µl/well cell culture supernatant and added it to 96-well plate containing 180 μl QUANTI-BLUE™ reagent. Incubated at 37° C. for one hour, and the optical density absorption value (OD650) at 650 nm was detected with a multifunctional microplate reader; • (5) Cell activity detection: operated according to the Celltiter-Glo instructions, and the chemiluminescence signal (RLU) was detected by a multifunctional microplate reader Envision; • (6) Data analysis: • Compound activity: OD650 value was analyzed by GraphPad Prism software, and the dose effect curve of the compound was fitted to calculate the EC50 value of the compound.

[1] = Cell activity detection (Celltiter-Glo) in HEK-Blue hTLR8 cells; assay type: cell-based; conditions: human
Method: as §4
(§5) Cell activity detection: cell activity was analyzed by GraphPad Prism software, and the dose effect curve of the compound was fitted to calculate the CC50 value of the compound to the cell.

[2] = Pharmacokinetic study in male SD rats; assay type: in vivo; conditions: rat, plasma
Method: Pharmacokinetic study: 6 healthy male SD rats (SPF grade) were divided into 2 groups and 3 rats/group. […] Within half an hour, plasma was taken after centrifugation (6000 rpm, 8 minutes, 4° C.) and frozen at −20° C. for later use. Experimental results: According to the obtained blood drug concentration data, the non-compartmental model of WinNonlin® 8.1 software (Certara, USA) was used to calculate the pharmacokinetic parameters after administration.

[3] = Cell activity detection (Celltiter-Glo) in human PBMC; assay type: cell-based
Method: (§6) Resuspended, cell number was counted, and the cell suspension was adjusted to 2.5×10^6 cells/ml with the culture medium.
as §5

[4] = Liver-blood ratio study in male SD rats; assay type: in vivo; conditions: rat, liver / plasma, single oral administration; for Kp at 1 h: time point 1 h; for Kp at 4 h: time point 4 h
Method: Liver-blood ratio study: 4 healthy male SD rats (SPF grade) were divided into 2 groups and 2 rats/group. After fasting overnight, compound A and compound X were administrated orally respectively. Blood was taken through cardiac puncture at time points 1 and 4 hours, at least 0.5 mL of whole blood was collected to EDTA-K2 anticoagulant tube, and plasma was taken after centrifugation (6000 rpm, 8 minutes, 4° C.) within half an hour and frozen at −20° C. for later use. At the same time, liver tissue was collected, rinsed with normal saline, then blotted dry with absorbent paper, weighed, and frozen at −20° C. for later use.

IL-12p40 in human PBMC = assay: IL-12p40 induction in human PBMC (ELISA); assay type: cell-based
From the text: The human peripheral blood mononuclear cell (PBMC) experiment and the IL-12p40 ELISA detection method are used to detect the IL-12p40 inducing activity of the compound of the present invention in human PBMC.
Toll-like receptors (TLRs) are a series of switches that regulate the human immune system and occupy an important position in both innate (non-specific) and specific immunity. TLR8 is mainly expressed in monocytes, macrophages and myeloid dendritic cells. TLR8 is expressed on the Endosome intima of the cell and recognizes single-stranded RNA with high GU (guanylate/uridonic acid) content. After TLR8 signaling pathway is activated, it will activate the secretion of a series of downstream cytokines (IL-12, TNF-alpha, IFN-gamma, etc.), causing antiviral immune response. In this experiment, the compound was used to stimulate human PBMC, and the level of IL-12p40 protein in the culture supernatant was detected to evaluate the activation level of the compound on the TLR8 signaling pathway.
• (1) The compound was added to the cell plate after a 3-fold gradient dilution, with a total of 8 concentrations, and two duplicate wells for each concentration.
as §6

human TLR8 = target: T2, human TLR8 (Homo sapiens, UniProt Q9NR97); assay: hTLR8 receptor binding activity in vitro (HEK-Blue hTLR8 SEAP reporter); assay type: cell-based; conditions: for EC50: HEK-Blue hTLR8 cells, 24 hours, SEAP OD650; for selectivity for TLR8 activation: TLR8 versus TLR7, compared with compound X
T2 construct: host or cells: HEK-Blue hTLR8 (HEK293-derived)
T2 sequence (Q9NR97 27-1041): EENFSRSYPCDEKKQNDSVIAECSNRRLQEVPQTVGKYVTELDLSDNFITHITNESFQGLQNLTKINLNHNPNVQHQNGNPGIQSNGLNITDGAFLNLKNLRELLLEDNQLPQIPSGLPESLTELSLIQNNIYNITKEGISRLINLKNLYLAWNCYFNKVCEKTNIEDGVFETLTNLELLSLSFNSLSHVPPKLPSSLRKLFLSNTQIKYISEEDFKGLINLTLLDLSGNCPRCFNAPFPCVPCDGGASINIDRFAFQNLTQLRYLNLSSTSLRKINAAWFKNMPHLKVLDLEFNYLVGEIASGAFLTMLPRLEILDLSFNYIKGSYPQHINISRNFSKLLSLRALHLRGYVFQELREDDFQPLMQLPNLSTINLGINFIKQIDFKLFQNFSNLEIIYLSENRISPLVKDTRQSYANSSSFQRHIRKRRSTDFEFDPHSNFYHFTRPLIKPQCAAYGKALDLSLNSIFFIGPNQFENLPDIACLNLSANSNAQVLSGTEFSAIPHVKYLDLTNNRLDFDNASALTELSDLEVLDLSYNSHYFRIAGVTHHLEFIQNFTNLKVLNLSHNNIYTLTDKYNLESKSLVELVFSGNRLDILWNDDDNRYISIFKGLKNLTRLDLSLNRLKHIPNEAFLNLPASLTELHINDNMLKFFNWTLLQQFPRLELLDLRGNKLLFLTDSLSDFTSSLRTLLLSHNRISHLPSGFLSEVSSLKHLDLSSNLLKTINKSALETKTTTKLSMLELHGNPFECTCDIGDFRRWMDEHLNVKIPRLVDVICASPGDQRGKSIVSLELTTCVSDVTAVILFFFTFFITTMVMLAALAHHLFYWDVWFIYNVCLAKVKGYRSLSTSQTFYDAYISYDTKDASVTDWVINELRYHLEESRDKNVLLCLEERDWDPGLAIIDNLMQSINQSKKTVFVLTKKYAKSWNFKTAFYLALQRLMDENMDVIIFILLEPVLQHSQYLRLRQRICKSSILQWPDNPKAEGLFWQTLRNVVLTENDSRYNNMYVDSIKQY
Method: as §1, §2, §3, §4

[5] = 24 hours, Celltiter-Glo, read-out: CC50
[6] = read-out: cytotoxic CC50 on human PBMC
[7] = human PBMC, 24 hours, ELISA OD450, read-out: IL-12p40 EC50

EC50 (human TLR7) [µM]	EC50 (human TLR8) [µM]	SMILES	CC50 at 24 h [1] [µM]	CC50 at 24 h [3, 5] [µM]	CC50 at 24 h [3, 6] [µM]	Kp at 1 h [4]	Kp at 4 h [4]	selectivity for TLR8 activation (human TLR8)	EC50 (IL-12p40 in human PBMC; [7]) [µM]	also measured
> 33	0.049	CCCC[C@](C)(CNC(C)=O)Nc1nc(N)nc2cc(C(C)=O)cnc12 [Compound V]	> 33					higher selectivity for TLR8 activation than compound X		
		CCOCc1nc2c(N)nc3ccccc3c2n1CC(C)(C)O [Compound R848, reference compound]	> 71	> 71					0.208	
11.9	0.04	CCCC[C@](C)(CNC(C)=O)Nc1nc(N)nc2cc(CC)cnc12 [Compound X, reference compound]	> 33			6.9	23.6			
> 33	0.207	CCCC[C@](C)(CNC(C)=O)Nc1nc(N)nc2cc(C(=O)N3CC4(CCN(c5ccccc5)CC4)C3)cnc12 [Compound T]	> 33							
28.4	0.029	CCCC[C@](C)(CNC(C)=O)Nc1nc(N)nc2cc(NC3CC3)cnc12 [Compound B]	> 33	28.9	> 10			higher selectivity for TLR8 activation than compound X	0.02	EC50 (IL-12p40 in human PBMC; human PBMC, read-out: induced activity EC50 on IL-12p40): 0.02 µM

SMILES	EC50 (human TLR7) [µM]	EC50 (human TLR8) [µM]	CC50 at 24 h [1] [µM]	CC50 at 24 h [3, 5] [µM]	CC50 at 24 h [3, 6] [µM]	Kp at 1 h [4]	Kp at 4 h [4]	selectivity for TLR8 activation (human TLR8)	EC50 (IL-12p40 in human PBMC; [7]) [µM]	also measured
CCCC[C@](C)(CNC(C)=O)Nc1nc(N)nc2cc(C(=O)N(C)C)cnc12 [Compound A]	> 33		> 33	> 33	> 10	12.3	34.4			AUC(0-inf) ([2]; IV 5 mg/kg): 877 ng·h/mL; AUC(0-t) ([2]; IV 5 mg/kg): 876 ng·h/mL; Cmax ([2]; IV 5 mg/kg): 1830 ng/mL; MRT last ([2]; IV 5 mg/kg): 22.8 min; Tmax ([2]; IV 5 mg/kg): 4.98 min; clearance ([2]; IV 5 mg/kg): 95 mL/min/kg; half-life ([2]; IV 5 mg/kg): 40.8 min; Vd ([2]; IV 5 mg/kg, read-out: Vz): 5.59 L/kg; AUC(0-inf) ([2]; PO 50 mg/kg): 1260 ng·h/mL; AUC(0-t) ([2]; PO 50 mg/kg): 1250 ng·h/mL; Cmax ([2]; PO 50 mg/kg): 1170 ng/mL; MRT last ([2]; PO 50 mg/kg): 116 min; Tmax ([2]; PO 50 mg/kg): 25.2 min; bioavailability ([2]; PO 50 mg/kg): 14.2%; half-life ([2]; PO 50 mg/kg): 345 min; EC50 (IL-12p40 in human PBMC; Homo sapiens, PBMC, 24 h, read-out: IL-12p40 EC50): 0.031 µM; EC50 (IL-12p40 in human PBMC; Homo sapiens, PBMC, read-out: induced activity EC50 on IL-12p40): 0.031 µM
